Where “and” joins values, the source holds several entries; their conditions need not be identical. Identical values can stand only once.
Tests used:
[1] = system: satellite cells; test: FACS-sorted satellite cells in vitro, compound added to the culture medium; assay type: cell-based, mouse; conditions: for Pax7+ (reserve, self-renewing) cells 14 days post-plating / Pax7 positive cells 4 days post-plating / Cells MyoG+ (Myogenin staining): compound added at 10 μM; for Pax7 positive cells 4 days post-plating: 2.000 cells per cm^2; for Cells MyoG+ (Myogenin staining): after 4 days
Description: (§1) Muscle dissection was done as previously described in cold DMEM. Muscles were then chopped with small scissors and put in a 50 ml Falcon tube with collagenase 0.1% and trypsin 0.25% at 37° C. with gentle agitation. After 20 minutes, the supernatant was collected in 20% serum placed on ice, and the collagenase/trypsin solution was added to continue the digestion. Once muscle was completely digested, the solution was filtrated using 40 μm cell strainers. Satellite cells were cultured in 1:1 DMEM-Glutamax (Gibco#41965-039):MCDB201 (Sigma#M6770) containing 20% serum FBS (Biowest S1860). Medium was filtered using 0.22 μm filters. Cells were plated on Matrigel coating (BD Biosciences#354234) and kept in an incubator (37° C., 5% CO2). […] The thus-obtained supernatant replaced FBS in the culture medium; the rest of the medium was unchanged.
Satellite cells were isolated from Tg:Pax7nGFP mice and cells were plated at 2.000 cells per cm^2. After overnight, vortioxetine was added at 10 μM. […] 14 days post-plating, a higher number of reserve cells (Pax7 positive cells that are quiescent in vitro) were detected in the vortioxetine-treated cells (9%±0.7) than in the PBS (3.5%±0.9, p=0.01), and when GR127935 inhibitor was added in vitro the number of reserve cells dropped (3.5%±0.9, p=0.9) (FIG. 11c). […] This difference in expression was lost when SC were plated with the GR127935 5-HT1 BR inhibitor (p=0.4) (FIGS. 11c-e). The positive effects of vortioxetine were lost when GR127935 was added in vitro together with vortioxetine (FIGS. 11c-e). These effects were however persistent when adding the 5-HT2 BR antagonist (FIGS. 11c-e). This means that the positive effects observed when plating vortioxetine in vitro with satellite cells is mediated via the 5HT1B receptor and not 5HT2B.
To test whether, 2 derivatives of vortioxetine, namely histidine-vortioxetine and pyrrolidinium-vortioxetine, could have similar or improved effect compared to the unmodified vortioxetine, the in vitro approach as described in section 2.2.3 above was used and the differentiation cascade of satellite cells was investigated by assessing the expression pattern of Pax7 (a marker of stemness and quiescence) and Myogenin (MyoG, a marker of differentiation) as described above in section 2.2.3. To do so, satellite cells from Tg:Pax7-nGFP were isolated by FACS and plated at 2.000 cells per cm^2 (seeded overnight). The following day, the vortioxetine, its derivatives, or the control PBS was added at 10 μM and the cells were fixed at the indicated time points.

[2] = system: satellite cells; test: Satellite cell (SC) number in tibialis anterior of treated mice (histological count or FACS cytometry); assay type: in vivo, mouse; conditions: for Number of satellite cells per TA by cytometry: Tg:Pax7nGFP mice
Description: For satellite cell counting, only the tibialis anterior muscle was dissected and digested as described earlier, and the totality of the tube was analysed to assess the number of satellite cells per muscle. FACS analysis was done using a FACSasia (Beckman). All analyses and quantitation were performed using Summit v4.3 software from DakoCytomation and FloJo software. […]
In order to count the number of satellite cells, the tibialis anterior (TA) of Tg:Pax7nGFP mice were digested and analysed by FACS in placebo and vortioxetine (12 days, 20 mg/Kg) treated mice. […] After 3 weeks of vortioxetine treatment, the number of satellite cells was even higher (9351 satellite cells±706, p=0.0079) but no statistically significant differences were found between 12 days and 3 weeks of treatment (p=0.15).

[3] = system: vessels; test: Vessel number in tibialis anterior of treated mice (Flk1GFP/+ or CD31 immunostaining); assay type: in vivo, mouse; conditions: vortioxetine I.P 12 days and PBS in osmotic pump
[4] = system: vessels; test: as above; assay type: in vivo, mouse
Description: (§2) Immunostaining was performed on cryosections fixed with 4% paraformaldehyde (PFA EMS#15710) in cold PBS, permeabilized with 0.5% Triton X-100 20 min at room temperature, washed, and blocked with 10% BSA for 30 min. Sections were incubated with primary antibodies overnight at 4° C. (see Table 1 below) and with Alexa-conjugated secondary antibodies 1/250 and Hoechst for 45 minutes. Sections were then analysed using an automated axioscan (Zeiss) or inverted Observer.Z1 Apotome (Zeiss). For apoptosis assessment, cells were collected in 2% serum, spun on polyD-lysine (Sigma-Aldrich#P6407), and immediately fixed with PFA 4%.
Throughout the study, focus was made on the tibialis anterior (TA). In skeletal muscle, SC are central for muscle repair. […] SC are localized close to capillaries and angiogenesis is known to be crucial for muscle repair SC survival with cellular interplays between vessel cells and SC. The number of vessels was therefore quantified. In control Flk1^GFP/+ mouse (placebo), the number of vessels was of 870±213.1 vessels per mm^2 and increased after 3 weeks of I.P treatment (1103±110.2 vessels per mm^2), and even more after 6 weeks (1384±175.3 vessels per mm^2, p=0.008) (FIG. 2e). Neovessels presented with normal histological appearance associating a basal lamina and a permeable lumen sometimes containing red blood cells. […] 841±137 CD31+ cells per mm^2 were counted in the placebo-treated mice vs. 2260±361 CD31+ cells per mm^2 in the fluoxetine-treated mice, p=0.008 (FIG. 2t-v), confirming the previous observation.
In order to investigate the effect of vortioxetine on vessels number, intra peritoneal (I.P) administration of 20 mg/kg of vortioxetine was performed for either 12 days, 3 or 6 weeks to C57Bl/6 mice (FIG. 10a). The number of CD31+ cells was counted by immunostaining. The number of vessels in the placebo is (863.5±115.6 vessels per mm^2) and increases after 12 days of I.P treatment (2274±926 vessels per mm^2, p=0.03), and even more after 3 weeks (2847±705 vessels per mm^2, p=0.02) (FIG. 10b). However, there was no statistically significant differences between 12 days and 3 weeks of treatment (p=0.49). Neovessels display a normal histological appearance associated with a basal lamina and a permeable lumen sometimes containing red blood cells. The daily administration of vortioxetine IP might cause unwanted peritoneal inflammation that could interfere with angiogenesis since inflammation and neovascularization are intertwined in some models. Vortioxetine was therefore administered per os (P.O) for 12 days: a similar increase in the number of vessels was observed (2451±595 vessels per mm^2 p=0.028, FIG. 10c). To further confirm those results, vortioxetine will be administered to Flk1^GFP/+ mice P.O and I.P for 12 days, and an ex vivo Matrigel angiogenesis assay and plasma from vortioxetine treated mice will be used on HUVEC (endothelial cells).

[5] = system: satellite cells; test: Satellite cell (SC) number in tibialis anterior of treated mice (histological count or FACS cytometry); assay type: in vivo, mouse
[6] = system: Tibialis anterior; test: Muscle regeneration after notexin injury of tibialis anterior; assay type: in vivo, mouse; conditions: antagonist together with fluoxetine; SC, differentiating cells, fiber size, calcium deposits, fibrosis, Gr1 and F4/80 cells
Description: Animals were anesthetized with ketamine (Imalgene1000 100 mg/Kg Merial) and Xylazine (Rompun2% 20 mg/Kg Bayer) prior to injury. Animals were hydrated and treated with analgesic (Buprenorphin Axience 0.3 mg/kg) twice a day for 4 d following injury. For the injury, mice were anesthetized as previously described and 10 μl of 12.5 μg/ml Notexin (Lotaxan) was injected in the Tibialis anterior. All protocols were reviewed by the Institut Pasteur, the competent authority, for compliance with the French and European regulations on Animal Welfare and with Public Health Service recommendations. This project has been reviewed and approved (#2013-0044) by the Institut Pasteur ethic committee (C2EA 89-CETEA).
Tibialis anterior (TA) was carefully dissected and snap frozen in liquid-nitrogen-cooled isopentane for a few minutes and stored at −80° C. prior to cryosectioning (10 μm sections). Sections were kept at room temperature overnight before staining. Sections were then rehydrated in PBS for 10 minutes and fixed in 10% formalin for 3 minutes. The sections were then routinely stained with haematoxylin and eosin (HE) using an automated stain machine or manually with red sirius.
as §2
For image analysis (fibrosis quantification), ImageJ 1.46r software was using between 10 different photos randomly taken per section and 3 sections minimum per experimental group. The pictures were converted in a binary image and the pixel values then collected. For fibre size, the sections were immunostained with rabbit anti Laminin (Sigma-Aldrich #L9393) diluted at 1/200, overnight at 4° C. Secondary Donkey ant Rabbit 488 (DL488 JacksonImmuno #711486152) were used at 1/200 45 minutes at room temperature. The fibre perimeter was done automatically by using Pixcavator® software.

[7] = system: satellite cells; test: Satellite cells in vitro in plasma of treated mice (live videomicroscopy, immunostaining); assay type: cell-based, mouse; conditions: plasma from fluoxetine-treated mice plus MDL100907
Description: as §1
Cells isolated by FACS were plated overnight on a 24-well glass bottom plate (P24G-0-10-F; MatTek) coated with matrigel (BD Biosciences#354234) and placed in an incubator in pre-equilibrated medium (1:1 DMEM Glutamax: MCDB [Sigma-Aldrich], 20% FCS (Biowest S1860). The plate was then incubated at 37° C., 5% CO2 (Zeiss, Pecon). A Zeiss Observer.Z1 connected with a LCI PInN 10×/0.8 W phaseII objective and AxioCam camera piloted with AxioVision was used. Cells were filmed for up to 5 days, and images were taken every 30 min with brightfield and phase filters and MozaiX 3×3 (Zeiss). Raw data were transformed and presented as a video.
Those results were confirmed in vitro (FIG. 7a). […] This difference was lost when SC were plated with GR127935 (p=0.4) (FIG. 7e). The faster exit of quiescence and higher division rates were also lost when adding GR127935 in vitro (FIGS. 7f,g). The effects of the plasma from fluoxetine-treated animals were persistent when adding MDL100907 (FIGS. 7b-g).

Cc1ccc(Sc2ccccc2N2CC[N+]3(CCCC3)CC2)c(C)c1 [pyrrolidinium-vortioxetine]
Increase in number of self-renewing cells compared with vortioxetine alone ([1]; 10 μM, 14 days post-plating): 20%
Pax7+ (reserve, self-renewing) cells 14 days post-plating [1]: 12.5±1.9%
Pax7 positive cells 4 days post-plating [1]: 25.25±4%
Cells MyoG+ (Myogenin staining) [1]: 19.75±0.47%
Number of SCs in the TA vs PBS ([2]; 20 mg/Kg IP for 12 days, TgPax7nGFP mice): doubling

CCCOc1ccc2[nH]cc(C3=CCNCC3)c2n1 [5-HT1B agonist]
Effect of direct addition on differentiation and self-renewal of SC ([1]; direct addition in the culture media, Pax7+ and Myogenin+ cells): triggered the same effect as the addition of plasma from fluoxetine-treated mice

Cc1ccc(Sc2ccccc2N2CCNCC2)c(C)c1 [vortioxetine, 1-[2-(2,4-Dimethylphenylsulfanyl)phenyl]piperazine]
Number of vessels [3]: 2274±926 vessels per mm^2
Number of vessels (CD31+) ([4]; vortioxetine 20 mg/kg I.P, 3 weeks, C57Bl/6 mice): 2847±705 vessels per mm^2
Number of vessels (CD31+) ([4]; vortioxetine 20 mg/kg I.P, 12 days, C57Bl/6 mice): 2274±926 vessels per mm^2
Number of vessels (CD31+) ([4]; vortioxetine per os (P.O), 12 days): 2451±595 vessels per mm^2
Pax7+ (reserve, self-renewing) cells 14 days post-plating [1]: 9% and 10.5±0.65%
Pax7 positive cells 4 days post-plating [1]: 23% and 23.7±2.78%
Cells MyoG+ (Myogenin staining) [1]: 34.5±2.5%
MyoD (activation marker) expression between conditions ([1]; vortioxetine 10 μM vs PBS vs GR127935): did not differ at any time investigated
Myogenin (MyoG) expression increase ([1]; vortioxetine 10 μM, 4 days post-plating): 2 times increase
Number of satellite cells per TA by cytometry ([2]; vortioxetine 3 weeks): 9351 satellite cells
Number of satellite cells per TA by cytometry ([2]; vortioxetine 12 days, 20 mg/Kg): 8660 satellite cells
SC number after P.O administration vs I.P ([2]; vortioxetine P.O at 20 mg/kg): a similar increase in SC number
SC increase by histological count on TA sections ([5]; vortioxetine 12 days, 20 mg/Kg): two-fold increase

COc1cccc([C@H](O)C2CCN(CCc3ccc(F)cc3)CC2)c1OC [MDL100907]
Effect of the antagonist on the beneficial effects of fluoxetine after injury [6]: did not suppress the beneficial effects of fluoxetine
Effects of vortioxetine when adding the 5-HT2 BR antagonist ([1]; 5-HT2 BR antagonist together with vortioxetine 10 μM): persistent
Inhibition of vortioxetine effects on vessels and SC number by the antagonist ([2]; MDL100907 together with vortioxetine): No inhibition of vortioxetine effects was observed
Inhibition of fluoxetine effects on SC and vessel number by the antagonist ([5]; antagonist together with fluoxetine treatment): no inhibition of fluoxetine effects were observed
Effects of the plasma from fluoxetine-treated animals when adding MDL100907 [7]: persistent
